Results published in the supplement of paper PMC6045584.
± gives the standard deviation of the averaged measurements.

Columns and labels:
LENVATINIB = compound: COc1cc2nccc(Oc3ccc(NC(=O)NC4CC4)c(Cl)c3)c2cc1C(N)=O [LENVATINIB]; test: surviving fraction relative to DMSO-only wells; higher = less growth inhibition; conditions: exposure time: 5 days
Outline: (§1)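 Surviving fraction was calculated by normalising CellTiter-Glo luminescence to the median of DMSO-only wells. Tumour cell lines in log phase were seeded in 384-well plates at 250–500 cells per well, and 24 hours later were exposed continuously for five days to inhibitors at 0.5, 1, 5, 10, 50, 100, 500 and 1000 nM.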

CABOZANTINIB = compound: COc1cc2nccc(Oc3ccc(NC(=O)C4(C(=O)Nc5ccc(F)cc5)CC4)cc3)c2cc1OC [CABOZANTINIB]; test: as above; conditions: exposure time: 5 days
Outline: as §1

Row | Test System | surviving fraction (LENVATINIB; 0.5 nM) | surviving fraction (LENVATINIB; 1 nM) | surviving fraction (LENVATINIB; 5 nM) | surviving fraction (LENVATINIB; 10 nM) | surviving fraction (LENVATINIB; 50 nM) | surviving fraction (LENVATINIB; 100 nM) | surviving fraction (LENVATINIB; 500 nM) | surviving fraction (LENVATINIB; 1000 nM) | surviving fraction (CABOZANTINIB; 0.5 nM) | surviving fraction (CABOZANTINIB; 1 nM) | surviving fraction (CABOZANTINIB; 5 nM) | surviving fraction (CABOZANTINIB; 10 nM) | surviving fraction (CABOZANTINIB; 50 nM) | surviving fraction (CABOZANTINIB; 100 nM) | surviving fraction (CABOZANTINIB; 500 nM) | surviving fraction (CABOZANTINIB; 1000 nM)
1 | HCC78 LUNG | 1.08 ± 0.28 | 1.02 ± 0.24 | 0.93 ± 0.32 | 1.04 ± 0.22 | 1.08 ± 0.044 | 1.07 ± 0.22 | 1.02 ± 0.1 | 0.978 ± 0.14 | 0.826 ± 0.047 | 0.884 ± 0.047 | 0.991 ± 0.044 | 0.608 ± 0.16 | 0.315 ± 0.049 | 0.281 ± 0.088 | 0.185 ± 0.023 | 0.221 ± 0.058
2 | HCC1806 BREAST | 1.02 ± 0.018 | 0.932 ± 0.099 | 1.12 ± 0.13 | 1.13 ± 0.089 | 1.24 ± 0.079 | 1.1 ± 0.13 | 0.961 ± 0.088 | 0.941 ± 0.13 | 0.863 ± 0.075 | 1.06 ± 0.057 | 1.092 ± 0.0075 | 1.06 ± 0.073 | 1.19 ± 0.078 | 1.08 ± 0.12 | 1.08 ± 0.021 | 1.09 ± 0.13
3 | SUM149.B1*.S BREAST | 1.11 ± 0.031 | 1.15 ± 0.018 | 1.15 ± 0.03 | 1.11 ± 0.044 | 1.19 ± 0.029 | 1.15 ± 0.031 | 1.17 ± 0.052 | 1.14 ± 0.042 | 1.03 ± 0.07 | 1.02 ± 0.034 | 0.998 ± 0.046 | 1.04 ± 0.025 | 1.039 ± 0.0013 | 0.979 ± 0.037 | 0.992 ± 0.029 | 0.967 ± 0.021
4 | T47D BREAST | 1.09 ± 0.018 | 1.09 ± 0.018 | 1.08 ± 0.044 | 1.06 ± 0.057 | 1.1 ± 0.028 | 1.13 ± 0.046 | 1.12 ± 0.064 | 1.1 ± 0.023 | 0.969 ± 0.016 | 0.988 ± 0.028 | 1.02 ± 0.038 | 1.04 ± 0.075 | 1.059 ± 0.0083 | 1.07 ± 0.021 | 1.07 ± 0.034 | 1.03 ± 0.022
5 | SUM159 BREAST | 1.16 ± 0.15 | 1.15 ± 0.11 | 1.11 ± 0.096 | 1.13 ± 0.12 | 1.08 ± 0.034 | 1.04 ± 0.088 | 1.08 ± 0.021 | 1.08 ± 0.017 | 1.02 ± 0.03 | 1.02 ± 0.028 | 1.01 ± 0.026 | 1.01 ± 0.036 | 1 ± 0.025 | 1.01 ± 0.034 | 0.986 ± 0.036 | 0.977 ± 0.025
6 | HCT15 LARGE INTESTINE | 1.09 ± 0.031 | 1.08 ± 0.039 | 1.08 ± 0.031 | 1.09 ± 0.063 | 1.13 ± 0.052 | 1.17 ± 0.061 | 1.12 ± 0.028 | 1.14 ± 0.021 | 0.952 ± 0.044 | 0.95 ± 0.06 | 0.943 ± 0.044 | 0.951 ± 0.073 | 0.966 ± 0.036 | 1.02 ± 0.037 | 0.994 ± 0.065 | 1.04 ± 0.06
7 | SG32 HEADNECK | 1.21 ± 0.15 | 1.38 ± 0.028 | 1.15 ± 0.14 | 1.13 ± 0.2 | 1.05 ± 0.15 | 1.12 ± 0.2 | 1.41 ± 0.35 | 1.15 ± 0.12 | 1.06 ± 0.18 | 1 ± 0.17 | 0.922 ± 0.1 | 1.04 ± 0.29 | 0.901 ± 0.1 | 0.961 ± 0.13 | 0.968 ± 0.1 | 0.711 ± 0.05
8 | U2OS BONE | 1.01 ± 0.038 | 0.99 ± 0.045 | 1.04 ± 0.039 | 1.02 ± 0.027 | 1.02 ± 0.019 | 1.02 ± 0.033 | 0.891 ± 0.051 | 0.832 ± 0.027 | 1.015 ± 0.0081 | 1.02 ± 0.028 | 1.03 ± 0.022 | 1.003 ± 0.0091 | 1.03 ± 0.046 | 1.02 ± 0.015 | 0.932 ± 0.018 | 0.914 ± 0.02
9 | OS25HAL BONE | 1.03 ± 0.026 | 1.026 ± 0.0067 | 1.01 ± 0.016 | 1.01 ± 0.05 | 0.98 ± 0.027 | 0.938 ± 0.025 | 0.895 ± 0.016 | 0.88 ± 0.021 | 0.957 ± 0.017 | 0.963 ± 0.02 | 1.02 ± 0.021 | 0.93 ± 0.022 | 0.941 ± 0.041 | 0.875 ± 0.029 | 0.8397 ± 0.0068 | 0.806 ± 0.068
10 | C33A CERVIX | 0.874 ± 0.037 | 0.937 ± 0.094 | 1 ± 0.14 | 1 ± 0.11 | 1.06 ± 0.097 | 1.14 ± 0.056 | 1.02 ± 0.1 | 0.955 ± 0.088 | 0.753 ± 0.12 | 0.696 ± 0.036 | 0.941 ± 0.021 | 0.885 ± 0.076 | 0.862 ± 0.071 | 0.919 ± 0.019 | 0.702 ± 0.0072 | 0.676 ± 0.068
11 | SKBR3 BREAST | 1 ± 0.18 | 1.08 ± 0.11 | 1.04 ± 0.15 | 1.06 ± 0.099 | 1.05 ± 0.19 | 1.16 ± 0.11 | 1.1 ± 0.068 | 0.944 ± 0.17 | 1.02 ± 0.1 | 0.954 ± 0.11 | 1.07 ± 0.083 | 0.973 ± 0.011 | 1.12 ± 0.11 | 1.06 ± 0.098 | 0.987 ± 0.077 | 0.973 ± 0.025
12 | RDES SOFT TISSUE | 1.33 ± 0.018 | 1.38 ± 0.032 | 1.15 ± 0.067 | 1.23 ± 0.083 | 1.28 ± 0.18 | 1.09 ± 0.14 | 1.09 ± 0.18 | 0.964 ± 0.25 | 1.2 ± 0.077 | 1.09 ± 0.1 | 1.21 ± 0.064 | 1.13 ± 0.083 | 1.23 ± 0.12 | 1.09 ± 0.076 | 1.1 ± 0.03 | 1.22 ± 0.22
13 | 22RV1 PROSTATE | 1.06 ± 0.03 | 1.05 ± 0.056 | 1.05 ± 0.059 | 1.01 ± 0.075 | 1.05 ± 0.11 | 0.97 ± 0.031 | 1.08 ± 0.032 | 1.06 ± 0.12 | 0.946 ± 0.039 | 1.03 ± 0.018 | 0.992 ± 0.056 | 1 ± 0.13 | 1.03 ± 0.06 | 1.08 ± 0.15 | 1.07 ± 0.095 | 0.909 ± 0.18
14 | CASKI CERVIX | 0.944 ± 0.077 | 0.98 ± 0.096 | 0.988 ± 0.014 | 1.01 ± 0.019 | 1.026 ± 0.0064 | 1.08 ± 0.063 | 0.985 ± 0.073 | 0.956 ± 0.073 | 0.969 ± 0.021 | 0.914 ± 0.05 | 0.942 ± 0.021 | 0.907 ± 0.063 | 0.959 ± 0.031 | 0.907 ± 0.021 | 0.953 ± 0.038 | 0.768 ± 0.027
15 | HU09 BONE | 0.925 ± 0.039 | 0.985 ± 0.079 | 0.97 ± 0.014 | 0.937 ± 0.13 | 0.649 ± 0.075 | 0.587 ± 0.021 | 0.33 ± 0.045 | 0.288 ± 0.034 | 0.945 ± 0.084 | 0.999 ± 0.11 | 0.978 ± 0.055 | 1.02 ± 0.13 | 0.885 ± 0.096 | 0.638 ± 0.06 | 0.452 ± 0.043 | 0.338 ± 0.034
16 | MDAMB157 BREAST | 0.97 ± 0.13 | 1.03 ± 0.081 | 0.993 ± 0.071 | 1.06 ± 0.11 | 0.934 ± 0.045 | 0.873 ± 0.069 | 0.7437 ± 0.0042 | 0.621 ± 0.045 | 0.933 ± 0.056 | 0.953 ± 0.049 | 1 ± 0.025 | 0.959 ± 0.031 | 0.994 ± 0.048 | 0.891 ± 0.054 | 0.798 ± 0.072 | 0.733 ± 0.03
17 | NCIH441 LUNG | 1.02 ± 0.12 | 1.11 ± 0.1 | 1.07 ± 0.11 | 1 ± 0.019 | 0.994 ± 0.083 | 1.09 ± 0.041 | 1.09 ± 0.075 | 1.01 ± 0.04 | 1.07 ± 0.042 | 1.02 ± 0.038 | 1.07 ± 0.036 | 0.963 ± 0.056 | 1.07 ± 0.028 | 1.06 ± 0.021 | 1.01 ± 0.031 | 0.845 ± 0.019
18 | DU4475 BREAST | 1.02 ± 0.26 | 1.12 ± 0.21 | 0.991 ± 0.23 | 0.994 ± 0.17 | 0.935 ± 0.22 | 1.06 ± 0.16 | 0.912 ± 0.2 | 0.994 ± 0.26 | 0.782 ± 0.12 | 0.874 ± 0.076 | 0.868 ± 0.053 | 0.93 ± 0.16 | 0.899 ± 0.19 | 0.781 ± 0.085 | 0.908 ± 0.096 | 1.03 ± 0.12
19 | HT1080 SOFT TISSUE | 1 ± 0.043 | 1.01 ± 0.051 | 1 ± 0.033 | 1.02 ± 0.032 | 1 ± 0.013 | 0.978 ± 0.021 | 1 ± 0.039 | 0.987 ± 0.026 | 1.05 ± 0.025 | 0.999 ± 0.021 | 1.01 ± 0.021 | 1.03 ± 0.013 | 1.01 ± 0.022 | 1.01 ± 0.014 | 0.973 ± 0.0017 | 0.965 ± 0.033
20 | MDAMB231 BREAST | 1.01 ± 0.029 | 1.02 ± 0.025 | 1.03 ± 0.033 | 1.02 ± 0.011 | 0.988 ± 0.012 | 1.02 ± 0.032 | 0.913 ± 0.032 | 0.882 ± 0.025 | 0.853 ± 0.013 | 0.9576 ± 0.0047 | 0.969 ± 0.0068 | 0.978 ± 0.024 | 1.01 ± 0.018 | 1.005 ± 0.0054 | 0.908 ± 0.03 | 0.849 ± 0.019
